Laboratory results reported in ChEMBL document CHEMBL4507327 (2021).
Activity calls are given as the source filed them. The rule behind the calls is not given here.

Experiments:
[1] = target: Non-receptor tyrosine-protein kinase TYK2 (Homo sapiens, UniProt P29597); experiment: Tyk2(TYK2LGF1) Takeda global kinase panel
[2] = target: Serine/threonine-protein kinase OSR1 (Homo sapiens, UniProt O95747); experiment: OSR1(OXS1LGY1) Takeda global kinase panel
[3] = target: Ephrin type-B receptor 1 (Homo sapiens, UniProt P54762); experiment: EphB1(EPB1LGY1) Takeda global kinase panel
[4] = target: Serine/threonine-protein kinase PAK 6 (Homo sapiens, UniProt Q9NQU5); experiment: PAK6(PAK6CGY1) Takeda global kinase panel
[5] = target: Dual specificity tyrosine-phosphorylation-regulated kinase 4 (Homo sapiens, UniProt Q9NR20); experiment: DYRK4(DYR4LHY1) Takeda global kinase panel
[6] = target: Endothelin receptor type B (Homo sapiens) (UniProt P24530); conditions: Compound concentration 10.0 uM
[7] = target: Dual specificity mitogen-activated protein kinase kinase 6 (Homo sapiens, UniProt P52564); experiment: MKK6 [MAP2K6(M2K6LGF1)] Takeda global kinase panel
[8] = target: Homeodomain-interacting protein kinase 2 (Homo sapiens, UniProt Q9H2X6); experiment: HIPK2(HIP2LGY1) Takeda global kinase panel
[9] = target: Serine/threonine-protein kinase Nek2 (Homo sapiens, UniProt P51955); experiment: Nek2(NEK2LHFA) Takeda global kinase panel
[10] = target: Serine/threonine-protein kinase H1 (Homo sapiens, UniProt P11801); experiment: PSKH1(PSH1LGRH) Takeda global kinase panel
[11] = target: Mitogen-activated protein kinase 14 (Homo sapiens, UniProt Q16539); experiment: p38alpha(MP14LGI1) Takeda global kinase panel
[12] = target: Eukaryotic translation initiation factor 2-alpha kinase 3 (Homo sapiens, UniProt Q9NZJ5); experiment: PERK [PEK(EIK3CGQ1)] Takeda global kinase panel
[13] = target: Mitogen-activated protein kinase 1 (Homo sapiens, UniProt P28482); experiment: ERK2(MAP1LGY1) Takeda global kinase panel
[14] = target: Serine/threonine-protein kinase PLK4 (Homo sapiens, UniProt O00444); experiment: PLK4(PLK4LGF1) Takeda global kinase panel
[15] = target: Phosphatidylinositol 4,5-bisphosphate 3-kinase catalytic subunit beta isoform (Homo sapiens, UniProt P42338); experiment: PIK3CB(PI3BCGRK) Takeda global kinase panel
[16] = target: Serine/threonine-protein kinase D1 (Homo sapiens, UniProt Q15139); experiment: PKD1(PRD1LHY1) Takeda global kinase panel
[17] = target: Receptor-type tyrosine-protein kinase FLT3 (Homo sapiens, UniProt P36888); experiment: FLT3(FLT3MGE1) Takeda global kinase panel
[18] = target: Sodium-dependent serotonin transporter (Homo sapiens) (UniProt P31645); conditions: Compound concentration 10.0 uM
[19] = target: D(3) dopamine receptor (Homo sapiens) (UniProt P35462); conditions: Compound concentration 10.0 uM
[20] = target: Receptor-interacting serine/threonine-protein kinase 2 (Homo sapiens, UniProt O43353); experiment: RIPK2(RIP2LGI1) Takeda global kinase panel
[21] = target: Wee1-like protein kinase (Homo sapiens, UniProt P30291); experiment: Wee1(WEE1LGF1) Takeda global kinase panel
[22] = target: Serine/threonine-protein kinase pim-3 (Homo sapiens, UniProt Q86V86); experiment: Pim3(PIM3LGP1) Takeda global kinase panel
[23] = target: Serine/threonine-protein kinase D2 (Homo sapiens, UniProt Q9BZL6); experiment: PKD2(PRD2LHY1) Takeda global kinase panel
[24] = target: Dual specificity tyrosine-phosphorylation-regulated kinase 2 (Homo sapiens, UniProt Q92630); experiment: DYRK2(DYR2LGY1) Takeda global kinase panel
[25] = target: Citron Rho-interacting kinase (Homo sapiens, UniProt O14578); experiment: CRIK(CIT1LGY1) Takeda global kinase panel
[26] = target: Neuropeptide Y receptor type 2 (Homo sapiens) (UniProt P49146); experiment: Inhibition of Neuropeptide Y Y2 at 10 µM in the Eurofins-Panlabs radioligand binding assay (Eurofins_assay_257110); conditions: Compound concentration 10.0 uM
[27] = target: Cyclin-dependent kinase 13 (Homo sapiens, UniProt Q14004); experiment: CHED(CD13PHS1) Takeda global kinase panel
[28] = target: Cyclin-dependent kinase 7 (Homo sapiens, UniProt P50613); experiment: CDK7(CDK7CGS1) Takeda global kinase panel
[29] = target: D(2) dopamine receptor (Homo sapiens) (UniProt P14416); conditions: Compound concentration 10.0 uM
[30] = target: LIM domain kinase 2 (Homo sapiens, UniProt P53671); experiment: LIMK2(LIM2LGV1) Takeda global kinase panel
[31] = target: Rho-associated protein kinase 1 (Homo sapiens, UniProt Q13464); experiment: ROCK1(ROC1LGY1) Takeda global kinase panel
[32] = target: Tyrosine-protein kinase SYK (Homo sapiens, UniProt P43405); experiment: Syk(SYK1LHY1) Takeda global kinase panel
[33] = target: STE20-like serine/threonine-protein kinase (Homo sapiens, UniProt Q9H2G2); experiment: SLK(SLK1LGRJ) Takeda global kinase panel
[34] = target: Voltage-dependent N-type calcium channel subunit alpha-1B (Homo sapiens) (UniProt Q00975); experiment: Inhibition of Calcium Channel N-Type at 10 µM in the Eurofins-Panlabs radioligand binding assay (Eurofins_assay_216000); conditions: Rattus norvegicus; Compound concentration 10.0 uM
[35] = species on record: Rattus norvegicus; experiment: Inhibition of Thyroid Hormone at 10 µM in the Eurofins-Panlabs radioligand binding assay (Eurofins_assay_285900); type: protein assay; conditions: Compound concentration 10.0 uM
[36] = target: Protein kinase C iota type (Homo sapiens, UniProt P41743); experiment: PKCiota(PRKILGRD) Takeda global kinase panel
[37] = target: Cyclin-dependent kinase 11A (Homo sapiens, UniProt Q9UQ88); experiment: CDK11A(C11ALGS1) Takeda global kinase panel
[38] = target: Mitogen-activated protein kinase kinase kinase 13 (Homo sapiens, UniProt O43283); experiment: LZK(M313LGRJ) Takeda global kinase panel
[39] = target: Cyclin-dependent kinase 5 (Homo sapiens, UniProt Q00535); experiment: CDK5(CDK5CGS1) Takeda global kinase panel
[40] = target: Serine/threonine-protein kinase Chk2 (Homo sapiens, UniProt O96017); experiment: CHK2(CHE2LGY1) Takeda global kinase panel
[41] = target: Receptor-interacting serine/threonine-protein kinase 1 (Mus musculus, UniProt Q60855); experiment: TR-FRET (mouse RIPK1)
[42] = target: Mitogen-activated protein kinase 6 (Homo sapiens, UniProt Q16659); experiment: ERK3(MAP6LHY1) Takeda global kinase panel
[43] = target: Beta-2 adrenergic receptor (Homo sapiens) (UniProt P07550); conditions: Compound concentration 10.0 uM
[44] = target: Vascular endothelial growth factor receptor 2 (Homo sapiens, UniProt P35968); experiment: KDR(KDR1CGY1) Takeda global kinase panel
[45] = target: Mitogen-activated protein kinase kinase kinase 9 (Homo sapiens, UniProt P80192); experiment: MLK1(M3K9LGF1) Takeda global kinase panel

STE20-like serine/threonine-protein kinase, sequence (Q9H2G2 whole entry): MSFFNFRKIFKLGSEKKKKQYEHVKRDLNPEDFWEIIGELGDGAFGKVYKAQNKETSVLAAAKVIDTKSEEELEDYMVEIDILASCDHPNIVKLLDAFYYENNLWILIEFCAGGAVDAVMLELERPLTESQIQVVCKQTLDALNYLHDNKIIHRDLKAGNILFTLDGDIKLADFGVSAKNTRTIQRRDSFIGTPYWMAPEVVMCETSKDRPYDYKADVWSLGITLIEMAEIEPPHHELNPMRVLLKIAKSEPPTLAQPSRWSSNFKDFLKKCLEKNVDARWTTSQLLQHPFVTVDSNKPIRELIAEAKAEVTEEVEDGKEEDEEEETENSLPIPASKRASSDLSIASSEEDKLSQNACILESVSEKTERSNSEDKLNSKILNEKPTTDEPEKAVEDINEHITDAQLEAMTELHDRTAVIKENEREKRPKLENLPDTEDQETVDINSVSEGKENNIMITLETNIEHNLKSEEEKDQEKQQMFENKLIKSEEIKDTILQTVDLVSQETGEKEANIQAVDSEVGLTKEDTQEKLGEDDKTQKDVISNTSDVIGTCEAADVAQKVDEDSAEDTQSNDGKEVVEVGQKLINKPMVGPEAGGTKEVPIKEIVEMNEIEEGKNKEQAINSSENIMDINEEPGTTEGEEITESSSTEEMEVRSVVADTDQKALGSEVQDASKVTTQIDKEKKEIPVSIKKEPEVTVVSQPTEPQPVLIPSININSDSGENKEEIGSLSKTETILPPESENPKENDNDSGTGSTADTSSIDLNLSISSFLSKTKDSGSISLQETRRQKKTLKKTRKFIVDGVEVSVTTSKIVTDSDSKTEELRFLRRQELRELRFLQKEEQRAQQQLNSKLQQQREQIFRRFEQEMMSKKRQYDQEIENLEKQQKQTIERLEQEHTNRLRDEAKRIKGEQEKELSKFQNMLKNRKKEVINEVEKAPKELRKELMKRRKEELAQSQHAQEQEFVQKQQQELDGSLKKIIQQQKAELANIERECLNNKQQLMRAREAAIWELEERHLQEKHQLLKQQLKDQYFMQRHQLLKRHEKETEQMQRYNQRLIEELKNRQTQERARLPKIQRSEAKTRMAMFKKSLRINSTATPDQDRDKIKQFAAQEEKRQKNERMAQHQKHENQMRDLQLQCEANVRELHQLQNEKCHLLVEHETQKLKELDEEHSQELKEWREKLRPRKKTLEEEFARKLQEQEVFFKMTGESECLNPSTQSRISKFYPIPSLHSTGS
Non-receptor tyrosine-protein kinase TYK2, sequence (P29597 whole entry): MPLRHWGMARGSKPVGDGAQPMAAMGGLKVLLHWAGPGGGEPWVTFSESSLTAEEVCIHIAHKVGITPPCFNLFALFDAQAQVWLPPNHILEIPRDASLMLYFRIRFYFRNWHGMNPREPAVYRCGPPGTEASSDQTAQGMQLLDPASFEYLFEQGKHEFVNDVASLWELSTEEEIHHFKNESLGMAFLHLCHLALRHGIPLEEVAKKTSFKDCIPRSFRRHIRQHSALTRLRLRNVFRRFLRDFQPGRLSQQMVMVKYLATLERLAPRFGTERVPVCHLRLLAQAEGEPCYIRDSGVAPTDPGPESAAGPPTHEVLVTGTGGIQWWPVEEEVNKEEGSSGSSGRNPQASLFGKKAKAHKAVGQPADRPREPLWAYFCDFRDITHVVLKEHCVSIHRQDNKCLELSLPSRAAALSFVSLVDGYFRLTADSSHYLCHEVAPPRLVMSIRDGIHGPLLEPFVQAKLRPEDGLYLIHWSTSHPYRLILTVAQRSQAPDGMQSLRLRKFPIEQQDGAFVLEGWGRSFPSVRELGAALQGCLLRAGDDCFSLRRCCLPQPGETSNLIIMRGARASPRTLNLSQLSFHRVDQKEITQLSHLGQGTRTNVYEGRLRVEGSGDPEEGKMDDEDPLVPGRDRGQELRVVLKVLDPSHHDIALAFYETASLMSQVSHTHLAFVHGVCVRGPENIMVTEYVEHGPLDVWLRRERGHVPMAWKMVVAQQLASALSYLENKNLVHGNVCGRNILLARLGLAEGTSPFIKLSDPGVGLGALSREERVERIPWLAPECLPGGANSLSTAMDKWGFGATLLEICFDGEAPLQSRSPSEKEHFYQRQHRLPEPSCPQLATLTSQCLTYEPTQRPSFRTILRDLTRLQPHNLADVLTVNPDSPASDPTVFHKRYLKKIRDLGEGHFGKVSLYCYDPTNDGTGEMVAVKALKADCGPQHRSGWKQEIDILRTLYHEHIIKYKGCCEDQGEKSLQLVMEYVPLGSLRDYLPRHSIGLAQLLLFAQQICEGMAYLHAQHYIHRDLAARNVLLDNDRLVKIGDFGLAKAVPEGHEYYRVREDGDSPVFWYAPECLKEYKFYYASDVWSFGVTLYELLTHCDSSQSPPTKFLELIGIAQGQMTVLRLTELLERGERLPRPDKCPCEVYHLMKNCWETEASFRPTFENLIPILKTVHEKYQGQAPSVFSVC
Cyclin-dependent kinase 7, sequence (P50613 whole entry): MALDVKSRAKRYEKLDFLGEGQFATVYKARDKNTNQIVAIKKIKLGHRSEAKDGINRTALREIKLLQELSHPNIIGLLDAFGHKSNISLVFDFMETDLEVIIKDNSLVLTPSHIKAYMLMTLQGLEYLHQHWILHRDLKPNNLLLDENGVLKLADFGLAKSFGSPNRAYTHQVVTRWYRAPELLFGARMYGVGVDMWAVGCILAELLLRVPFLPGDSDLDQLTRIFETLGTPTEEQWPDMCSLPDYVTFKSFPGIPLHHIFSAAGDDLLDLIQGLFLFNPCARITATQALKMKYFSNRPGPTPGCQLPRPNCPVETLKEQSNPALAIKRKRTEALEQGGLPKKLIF
Rho-associated protein kinase 1, sequence (Q13464 whole entry): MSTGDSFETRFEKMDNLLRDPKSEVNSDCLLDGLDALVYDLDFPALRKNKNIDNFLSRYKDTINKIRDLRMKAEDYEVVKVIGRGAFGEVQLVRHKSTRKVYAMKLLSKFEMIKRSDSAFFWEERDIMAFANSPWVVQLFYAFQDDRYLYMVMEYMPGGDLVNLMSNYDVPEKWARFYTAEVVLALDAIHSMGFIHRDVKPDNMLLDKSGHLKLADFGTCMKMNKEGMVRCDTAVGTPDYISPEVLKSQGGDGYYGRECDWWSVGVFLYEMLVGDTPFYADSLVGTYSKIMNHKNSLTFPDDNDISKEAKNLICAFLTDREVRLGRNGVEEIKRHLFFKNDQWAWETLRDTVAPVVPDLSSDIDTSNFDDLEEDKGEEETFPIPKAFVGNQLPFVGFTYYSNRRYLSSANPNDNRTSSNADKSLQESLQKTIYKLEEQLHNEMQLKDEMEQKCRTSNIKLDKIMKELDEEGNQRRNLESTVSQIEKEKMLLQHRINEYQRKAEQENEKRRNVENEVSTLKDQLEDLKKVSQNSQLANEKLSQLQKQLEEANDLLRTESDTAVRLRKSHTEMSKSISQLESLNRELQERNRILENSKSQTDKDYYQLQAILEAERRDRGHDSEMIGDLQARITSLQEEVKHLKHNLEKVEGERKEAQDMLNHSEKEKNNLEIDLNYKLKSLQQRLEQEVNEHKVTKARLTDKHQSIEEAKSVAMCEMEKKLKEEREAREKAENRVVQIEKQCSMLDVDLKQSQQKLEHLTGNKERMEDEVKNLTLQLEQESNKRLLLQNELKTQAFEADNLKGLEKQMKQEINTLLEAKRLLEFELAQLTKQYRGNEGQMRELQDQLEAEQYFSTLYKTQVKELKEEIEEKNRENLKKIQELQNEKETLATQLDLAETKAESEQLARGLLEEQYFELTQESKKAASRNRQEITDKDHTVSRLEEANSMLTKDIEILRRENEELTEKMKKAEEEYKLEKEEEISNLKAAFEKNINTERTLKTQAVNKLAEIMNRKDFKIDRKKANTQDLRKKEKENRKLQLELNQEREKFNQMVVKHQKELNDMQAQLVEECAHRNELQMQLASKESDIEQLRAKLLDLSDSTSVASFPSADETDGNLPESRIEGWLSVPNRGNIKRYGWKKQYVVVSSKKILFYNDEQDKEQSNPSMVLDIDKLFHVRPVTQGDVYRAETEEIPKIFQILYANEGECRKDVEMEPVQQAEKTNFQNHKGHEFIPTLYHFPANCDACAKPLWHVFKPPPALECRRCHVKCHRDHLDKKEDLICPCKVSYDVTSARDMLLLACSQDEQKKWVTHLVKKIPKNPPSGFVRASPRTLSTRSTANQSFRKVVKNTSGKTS
Mitogen-activated protein kinase 6, sequence (Q16659 whole entry): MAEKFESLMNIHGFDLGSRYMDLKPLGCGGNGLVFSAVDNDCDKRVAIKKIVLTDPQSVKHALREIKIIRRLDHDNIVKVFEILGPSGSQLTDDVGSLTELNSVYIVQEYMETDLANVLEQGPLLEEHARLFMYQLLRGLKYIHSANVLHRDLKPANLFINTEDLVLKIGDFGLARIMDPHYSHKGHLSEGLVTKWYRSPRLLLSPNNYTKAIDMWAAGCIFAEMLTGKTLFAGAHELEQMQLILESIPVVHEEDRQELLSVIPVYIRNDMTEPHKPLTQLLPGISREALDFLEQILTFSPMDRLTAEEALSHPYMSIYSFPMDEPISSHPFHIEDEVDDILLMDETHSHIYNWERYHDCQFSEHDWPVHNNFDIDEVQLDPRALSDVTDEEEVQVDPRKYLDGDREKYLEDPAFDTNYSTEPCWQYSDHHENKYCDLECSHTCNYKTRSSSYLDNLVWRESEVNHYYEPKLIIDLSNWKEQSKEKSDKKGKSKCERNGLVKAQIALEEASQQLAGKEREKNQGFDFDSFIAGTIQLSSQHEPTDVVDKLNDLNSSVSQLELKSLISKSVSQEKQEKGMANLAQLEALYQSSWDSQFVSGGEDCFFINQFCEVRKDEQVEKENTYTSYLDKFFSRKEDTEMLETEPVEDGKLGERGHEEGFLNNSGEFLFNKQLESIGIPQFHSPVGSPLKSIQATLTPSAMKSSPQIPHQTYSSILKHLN

`CN1C(=O)[C@@H](N2CCc3cn(Cc4ccccc4)nc3C2=O)COc2ccccc21` [TP-030-1] showed an IC50 [1] of 1000 nM, an IC50 [2] of 1000 nM and an IC50 [3] of 1000 nM. For the same compound, the IC50 [4] was 1000 nM, the IC50 [5] was 1000 nM and the inhibition [6] was 0%. The IC50 [7] was 1000 nM, the IC50 [8] was 1000 nM and the IC50 [9] was 1000 nM. It also gave an IC50 [10] of 1000 nM, an IC50 [11] of 1000 nM and an IC50 [12] of 1000 nM. It also gave an IC50 [13] of 1000 nM, an IC50 [14] of 1000 nM and an IC50 [15] of 1000 nM. For the same compound, the IC50 [16] was 1000 nM, the IC50 [17] was 1000 nM and the inhibition [18] was -4%. The inhibition [19] was 8%, the IC50 [20] was 1000 nM and the IC50 [21] was 1000 nM. For the same compound, the IC50 [22] was 1000 nM, the IC50 [23] was 1000 nM and the IC50 [24] was 1000 nM. For the same compound, the IC50 [25] was 1000 nM, the inhibition [26] was 2% and the IC50 [27] was 1000 nM. It also gave an IC50 [28] of 1000 nM, an inhibition [29] of 7% and an IC50 [30] of 1000 nM. It also gave an IC50 [31] of 1000 nM, an IC50 [32] of 1000 nM and an IC50 [33] of 1000 nM. The inhibition [34] was -2%, the inhibition [35] was 24% and the IC50 [36] was 1000 nM. The IC50 [37] was 1000 nM, the IC50 [38] was 1000 nM and the IC50 [39] was 1000 nM. The IC50 [40] was 1000 nM, the IC50 [41] was 4200 nM (active) and the IC50 [42] was 1000 nM. The inhibition [43] was -4%, the IC50 [44] was 1000 nM and the IC50 [45] was 1000 nM.
With `CN1C(=O)[C@@H](N2CCc3cn(CC4CCS(=O)(=O)CC4)nc3C2=O)COc2ccccc21` [TP-030n] the IC50 [1] was 1000 nM, the IC50 [2] was 1000 nM and the IC50 [3] was 1000 nM. It also gave an IC50 [4] of 1000 nM, an IC50 [5] of 1000 nM and an inhibition [6] of -3%. It also gave an IC50 [7] of 1000 nM, an IC50 [8] of 1000 nM and an IC50 [9] of 1000 nM. The IC50 [10] was 1000 nM, the IC50 [11] was 1000 nM and the IC50 [12] was 1000 nM. The IC50 [13] was 1000 nM, the IC50 [14] was 1000 nM and the IC50 [15] was 1000 nM. For the same compound, the IC50 [16] was 1000 nM, the IC50 [17] was 1000 nM and the inhibition [18] was 5%. It also gave an inhibition [19] of 4%, an IC50 [20] of 1000 nM and an IC50 [21] of 1000 nM. For the same compound, the IC50 [22] was 1000 nM, the IC50 [23] was 1000 nM and the IC50 [24] was 1000 nM. It also gave an IC50 [25] of 1000 nM, an inhibition [26] of 1% and an IC50 [27] of 1000 nM. It also gave an IC50 [28] of 1000 nM, an inhibition [29] of 2% and an IC50 [30] of 1000 nM. The IC50 [31] was 1000 nM, the IC50 [32] was 1000 nM and the IC50 [33] was 1000 nM. For the same compound, the inhibition [34] was 2%, the inhibition [35] was 21% and the IC50 [36] was 1000 nM. It also gave an IC50 [37] of 1000 nM, an IC50 [38] of 1000 nM and an IC50 [39] of 1000 nM. The IC50 [40] was 1000 nM, the IC50 [41] was > 10000 nM (not active) and the IC50 [42] was 1000 nM. The inhibition [43] was 4%, the IC50 [44] was 1000 nM and the IC50 [45] was 1000 nM.
